Source: patent US20210198277A1, “AMINE-SUBSTITUTED ARYL OR HETEROARYL COMPOUNDS” (Epizyme, Inc., priority 2016, published 2021)

The compounds below were run against T1, EHMT2 (Homo sapiens, UniProt Q96KQ7) (assay: MDA-MB-231 H3K9me2 in-cell Western assay (EHMT2 ICW)). Details: Table III; MDA-MB-231 H3K9me2 in-cell Western; read-out: EHMT2 ICW (IC50 μM).
T1 construct: host or cells: MDA-MB-231
T1 sequence (Q96KQ7 1-1210): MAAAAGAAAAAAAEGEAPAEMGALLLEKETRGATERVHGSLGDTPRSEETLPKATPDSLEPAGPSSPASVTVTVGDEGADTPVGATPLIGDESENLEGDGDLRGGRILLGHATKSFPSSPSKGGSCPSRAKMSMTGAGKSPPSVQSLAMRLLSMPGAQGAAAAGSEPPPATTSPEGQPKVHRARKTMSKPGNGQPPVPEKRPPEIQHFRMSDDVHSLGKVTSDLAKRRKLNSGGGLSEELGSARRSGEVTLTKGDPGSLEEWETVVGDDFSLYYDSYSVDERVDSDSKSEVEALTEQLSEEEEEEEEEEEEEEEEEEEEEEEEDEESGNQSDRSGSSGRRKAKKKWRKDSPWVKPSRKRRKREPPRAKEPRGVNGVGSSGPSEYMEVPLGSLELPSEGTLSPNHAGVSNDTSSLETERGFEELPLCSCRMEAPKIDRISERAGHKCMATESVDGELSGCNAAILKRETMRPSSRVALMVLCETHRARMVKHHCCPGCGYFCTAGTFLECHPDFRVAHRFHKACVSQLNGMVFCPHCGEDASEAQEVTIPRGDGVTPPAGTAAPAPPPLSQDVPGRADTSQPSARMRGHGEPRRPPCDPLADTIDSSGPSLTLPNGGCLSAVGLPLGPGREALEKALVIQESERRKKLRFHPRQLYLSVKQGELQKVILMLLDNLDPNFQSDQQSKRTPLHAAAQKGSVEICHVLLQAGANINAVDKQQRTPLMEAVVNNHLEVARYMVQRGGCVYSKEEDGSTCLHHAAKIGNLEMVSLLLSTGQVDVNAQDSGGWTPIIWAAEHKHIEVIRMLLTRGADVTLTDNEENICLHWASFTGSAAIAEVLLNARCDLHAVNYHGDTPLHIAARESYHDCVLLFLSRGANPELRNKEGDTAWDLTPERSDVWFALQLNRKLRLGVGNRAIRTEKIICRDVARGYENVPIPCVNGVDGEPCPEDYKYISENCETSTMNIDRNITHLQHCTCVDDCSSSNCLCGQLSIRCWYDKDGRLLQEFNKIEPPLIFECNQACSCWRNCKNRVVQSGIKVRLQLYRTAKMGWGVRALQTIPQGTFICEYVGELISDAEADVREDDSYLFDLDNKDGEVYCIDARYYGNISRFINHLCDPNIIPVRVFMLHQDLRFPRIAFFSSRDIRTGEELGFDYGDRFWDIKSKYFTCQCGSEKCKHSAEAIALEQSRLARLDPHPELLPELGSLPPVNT
Assay type: cell-based
In short: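 Cellular dimethyl-H3K9 is quantified by in-cell Western in MDA-MB-231 cells treated with compound for 48 h. The H3K9me2 signal at 800 nm is normalised to DRAQ5 nuclear stain at 700 nm. IC50 is calculated from triplicate concentration points by nonlinear regression.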

IC50 [µM] | Structure (SMILES)
> 10 | COc1ccc(Nc2cccc3ncnn23)cc1OCCCN1CCCC1 [Compound 344]
> 10 | COc1ccc(Nc2cc3c(cn2)ncn3C)cc1OCCCN1CCCC1 [Compound 258, N-(4-methoxy-3-(3-(pyrrolidin-1-yl)propoxy)phenyl)-1-methyl-1H-imidazo[4,5-c]pyridin-6-amine]
> 10 | COc1ccc(Nc2nccc(-n3nc(C)cc3C)n2)cc1OCCCN1CCCC1 [Compound 338]
> 10 | COc1ccc(Nc2nccc(-c3cnn(C)c3)n2)cc1OCCCN1CCCC1 [Compound 348]
> 10 | COc1ccc(Nc2ccc3cnn(C)c3n2)cc1OCCCN1CCCC1 [Compound 257, N-(4-methoxy-3-(3-(pyrrolidin-1-yl)propoxy)phenyl)-1-methyl-1H-pyrazolo[3,4-b]pyridin-6-amine]
> 10 | CNCc1cnc(Nc2ccc(OC)c(OCCCN3CCCC3)c2)nc1 [Compound 339]
> 10 | CCn1nc(Nc2nccc3[nH]ccc23)cc1COCCN1CCCC1 [Compound 333]
> 10 | CNc1cc(C)nc(Nc2ccc(OC)c(OC[C@H]3C[C@H](N(C)C)C3)c2)n1 [Compound 330]
1 to 10 | CNc1ccnc(Nc2ccc(OC)c(OCCCN3CC[C@@H](F)C3)c2)n1 [Compound 353]
> 10 | COc1ccc(Nc2ccc3nn(C)cc3c2)cc1OCCCN1CCCC1 [Compound 345]
1 to 10 | CNc1cc(Nc2cc(OCCCN3CCCC3)c(OC)cn2)nc(C)n1 [Compound 325, N^4-(5-methoxy-4-(3-(pyrrolidin-1-yl)propoxy)pyridin-2-yl)-N^6,2-dimethylpyrimidine-4,6-diamine]

Same assay, conditions: Table VI; read-out: EHMT2 ICW IC50

IC50 [µM] | Structure (SMILES)
1 to 10 | COc1cc2c(C3CCN(CC(F)(F)F)CC3)cc(C)nc2cc1OCCCN1CCCC1 [Compound 837]
1 to 10 | CNc1cc(C)nc(Nc2cc(OCCCN3CCCC3)c3nc(C)cn3c2)n1 [Compound 616]
0.1 to 1 | CNc1cc(C2CCN(C(C)=O)CC2)c2cc(OC)c(OCCCN3CCCC3)cc2n1 [Compound 809]
> 10 | COc1cc(N(C)C2CCOCC2)ncc1OCC1CCNC1 (stereo not shown) [Compound 808]
> 10 | CNc1cc(C)nc(Nc2ccc(OC)c(C#CCN3CCN(C)CC3)c2)n1 [Compound 860]
> 10 | COc1cc2c(C)nc(N3CCCCC3)nc2cc1OCCCN1CCCC1 [Compound 811]
1 to 10 | CNc1cc2nccn2c(Nc2cc(OCCCN3CCCC3)c(OC)cn2)n1 [Compound 611]
> 10 | COc1cc2c(C3CCN(CC(F)(F)F)CC3)nc(C)nc2cc1OCCCN1CCCC1 [Compound 841]
> 10 | CNc1cc(C)nc(Nc2cc(OCCCN3CCCC3)c3nccn3c2)n1 [Compound 618]
> 10 | COc1cnc(Nc2nccc3nccn23)cc1OC[C@@H]1CCNC1 [Compound 801]
> 10 | CNc1cc(C)nc(Nc2ccc(OC)c(CN[C@H]3CCNC3)c2)n1 [Compound 813]
< 0.1 | CNc1cc(C2CCN(CCOC)CC2)c2cc(OC)c(OCCCN3CCCC3)cc2n1 [Compound 839]
< 0.1 | CNc1cc(C2CCN(CCC(F)(F)F)CC2)c2cc(OC)c(OCCCN3CCCC3)cc2n1 [Compound 832]
> 10 | COc1ccc(Nc2cc(C)n(C)n2)cc1OCCCN1CCCC1 [Compound 797]
